# Laboratory results from patent publication US20060142591A1, “DAPH analogs and inhibition of protein aggregation” (priority 2004, published 2006).
# Experiments:
# Sup35 NM protein [1] = molecular target: T1, Sup35 NM protein (Saccharomyces cerevisiae, UniProt P05453); test: NM seed assay; type: biochemical, yeast; conditions: disaggregated monomers used as seed at 2% or 5%
# T1 construct: Soluble Sup35 NM protein (“NM”) was tested for aggregation
# T1 sequence (P05453 1-253 limits assumed): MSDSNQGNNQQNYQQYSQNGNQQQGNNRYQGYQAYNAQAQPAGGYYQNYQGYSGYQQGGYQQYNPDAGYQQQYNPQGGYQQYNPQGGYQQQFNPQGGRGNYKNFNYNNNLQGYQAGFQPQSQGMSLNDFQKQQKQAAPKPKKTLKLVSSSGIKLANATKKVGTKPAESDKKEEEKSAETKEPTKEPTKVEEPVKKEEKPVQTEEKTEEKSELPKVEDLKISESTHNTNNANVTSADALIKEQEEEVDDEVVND
# Method: Monomers of NM disaggregated by treatment with DAPH and DAPH analogs (see below) were tested for the ability to “seed” new NM fibers. Disaggregated monomers were used at 2% or 5% as described above for the NM aggregation assay.
# (§1) Congo red was added to NM aggregation, NM disaggregation or NM seed reaction mixtures following incubation to a final concentration of 10 μM. After 30 min at 25° C., absorbances at 320, 477, and 540 nm were determined. Congo red dye binding was measured by using the equation [(OD540/25,295)−(OD477/46,306)] (Klunk et al., J. Histochem. Cytochem. 37:1273-1279, 1989) as described by Schirmer and Lindquist (Proc. Natl. Acad. Sci USA 94:13932-13937, 1997).
# NM protein fibers = molecular target: T2, NM protein fibers (Saccharomyces cerevisiae, UniProt P05453); test: NM disaggregation assay; type: biochemical, yeast
# T2 construct: Soluble Sup35 NM protein (“NM”) was tested for aggregation
# T2 sequence (P05453 1-253 limits assumed): T1 sequence (P05453 1-253 limits assumed)
# Method: For determining disaggregation of preformed aggregates, NM protein fibers (equivalent to 5 μM monomer) were incubated with DAPH (0-20 μM), DAPH analogs (0-20 μM) or DMSO (0-2% v/v). The assay mixture was incubated for 24 hr at 25° C., then tested for Congo Red or Thioflavin T binding to determine the extent of NM fibers remaining.
# as §1
# To measure β-sheet formation, ThT was added to protein or peptide reaction mixtures, such as Aβ samples or NM aggregation, NM disaggregation or NM seed reaction mixtures following incubation and fluorescent measurements were read according to standard procedures.
# For measurement, each sample preferably is split into multiple wells of a 96-well black-bottom plate (e.g., catalog no. 35-3943, VWR International, Westchester, Pa.). ThT fluorescence is measured at room temperature (e.g., in a Fluoroskan II at […] or a FLUOstar Optima plate-reader (BMG Lab Technologies, Durham, N.C.) at Ex=440 nm and Em=480 nm). The ThT fluorescence spectrum is measured in an spectrofluorimeter (e.g., f4500, Hitachi, Tokyo) at Ex=435 nm and Em=450-550 nm.
# amyloid β (Aβ) fibers = amyloid β (Aβ) fibers (Homo sapiens, UniProt P05067); conditions: Blanchard et al., PNAS 101:14326-14332, 2004; cited from earlier work
# Sequence of amyloid β (Aβ) fibers (P05067 672-713 limits assumed): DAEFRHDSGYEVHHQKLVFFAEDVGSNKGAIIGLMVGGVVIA
# Sup35 NM protein [2] = molecular target: T1, Sup35 NM protein; test: NM aggregation assay; type: biochemical, yeast; conditions: soluble NM 5 μM
# Method: Soluble Sup35 NM protein (“NM”) was tested for aggregation in the presence of DAPH, DAPH analogs or vehicle control (DMSO). NM protein (5 μM) was aggregated in the presence of DAPH (0-20 μM), DAPH analogs (0-20 μM) or DMSO (0-2% v/v). The assay mixture was incubated for 24 hr at 25° C., then tested for Congo Red binding to determine the extent of NM fiber formation.
# as §1
# Soluble Sup35 NM (“NM”) at 5 μM was tested for aggregation in the presence of DAPH, DAPH analogs or vehicle control (DMSO). Aggregation of NM was inhibited by up to 100% (see FIG. 1). Inhibition of NM aggregation was concentration dependent.
# Aβ4230k = Aβ4230k (Homo sapiens, UniProt P05067); test: Coincubation with seedless Aβ42 (fibrillization), observed by EM; type: biochemical
# Sequence of Aβ4230k (P05067 672-713 limits assumed): as above
# [3] = tested on: RML strain of mouse scrapie; type: in vivo, CD1 mice
# Aβ fibrils = Aβ fibrils (Homo sapiens, UniProt P05067); test: Reversal of preformed Aβ fibrils, observed by EM; type: biochemical; conditions: Aβ aggregated 24 h at pH 7.4, then another 24 h with equimolar compound; vehicle 1% DMSO
# Sequence of Aβ fibrils (P05067 672-713 limits assumed): as above
# Method: Aβ42Total is unfractionated synthetic Aβ42 that was dissolved in water at pH 8-9 by using NH3 or at pH 10-11 by using dilute NaOH and stored at −40° C. Experimental samples were prepared by diluting the stock solution of Aβ42 to 10 μM (unless noted otherwise) in Tyrode's solution 2 mM Ca (150 mM NaCl/3 mM KCl/10 mM Hepes, pH 7.4/2 mM CaCl2/10 mM D-glucose, pH 7.4/0.02% Na azide). The synthetic Aβ42 was dissolved in water at a pH of ˜8 and then stored at −20° C. until diluted into Tyrode's Solution/2 mM Ca (pH 7.4). This preparation is “Aβ42Total”. To aggregate for use in experiments, it was preincubated for 24 or 48 h at 37° C. without stirring. Negative-staining EM was used to visualize the kinetics and morphology of Aβ42 fibrillization over time, with and without the presence of DAPH analogs. Samples of 10 μM seedless Aβ42 (Aβ4230k) were incubated for a predetermined amount of time at 37° C. and vigorously vortex mixed immediately before and after incubation. Very small volumes, typically 5 μl, of each sample were absorbed for 2-4 min onto glow-discharged, carbon-coated, Formvar-filmed 400 mesh copper grids and gently wicked away with filter paper. […] Measurements were analyzed, and width-distribution histograms were produced by using EXCEL 98 (Microsoft). […]
# Aβ42Total = Aβ42Total (Homo sapiens, UniProt P05067); test: Reversal of aggregated Aβ42Total fibrils, ThT assay; type: biochemical; conditions: depends on the concentration of compound
# Sequence of Aβ42Total (P05067 672-713 limits assumed): as above
# Method: Aβ42Total is unfractionated synthetic Aβ42 that was dissolved in water at pH 8-9 by using NH3 or at pH 10-11 by using dilute NaOH and stored at −40° C. Experimental samples were prepared by diluting the stock solution of Aβ42 to 10 μM (unless noted otherwise) in Tyrode's solution 2 mM Ca (150 mM NaCl/3 mM KCl/10 mM Hepes, pH 7.4/2 mM CaCl2/10 mM D-glucose, pH 7.4/0.02% Na azide). The synthetic Aβ42 was dissolved in water at a pH of ˜8 and then stored at −20° C. until diluted into Tyrode's Solution/2 mM Ca (pH 7.4). This preparation is “Aβ42Total”. To aggregate for use in experiments, it was preincubated for 24 or 48 h at 37° C. without stirring. To measure β-sheet formation, ThT was added to protein or peptide reaction mixtures, such as Aβ samples or NM aggregation, NM disaggregation or NM seed reaction mixtures following incubation and fluorescent measurements were read according to standard procedures. […] ThT fluorescence is measured at room temperature (e.g., in a Fluoroskan II at […] or a FLUOstar Optima plate-reader (BMG Lab Technologies, Durham, N.C.) at Ex=440 nm and Em=480 nm). The ThT fluorescence spectrum is measured in an spectrofluorimeter (e.g., f4500, Hitachi, Tokyo) at Ex=435 nm and Em=450-550 nm. Fibrils of aggregated Aβ42Total give a strong ThT fluorescence signal, indicating high β-sheet content.
# [4] = 1% brain homogenate incubated 48 hours with compound, lower doses of infectivity, log rank test
SMILES,ability of NM protein to reform NM fibers following disaggregation (Sup35 NM protein [1]),"disaggregation of preformed NM fibers as compared to the DMSO control (NM protein fibers; preformed NM aggregates, FIGS. 2 and 3)","dissolution of NM fibers as measured by Congo Red binding (NM protein fibers; preformed NM fibers, FIG. 2)","dissolution of NM fibers as measured by ThT fluorescence (NM protein fibers; preformed NM fibers, FIG. 3)",disaggregation of amyloid β (Aβ) fibers (amyloid β (Aβ) fibers),effect on NM fiber assembly / NM aggregation (in words) (Sup35 NM protein [2]),"inhibition of NM aggregation (Sup35 NM protein [2]; compound 0-20 μM, 24 hr at 25° C., Congo Red binding, FIG. 1, concentration dependent)","elimination of higher-order structure, EM studies (Aβ4230k; 24 h incubation)","elimination of the usual fibrils, as observed by EM (Aβ4230k; coincubation of Aβ4230k with equimolar compound (10:10 μM), 1% DMSO)","effect on survival / prion titers (in words) [3, 4]",effect of treatment at high doses of infectivity ([3]; high doses of infectivity),reversal of aggregation of Aβ fibrils as determined by EM (Aβ fibrils),"time for reversal of the fibrils, as detected by the ThT assay (Aβ42Total)","median survival longer than DMSO controls ([3]; 1% brain homogenate incubated 48 hours with compound, lower doses of infectivity, CD1 mice n=4 per group, log rank test)"
"O=C1NC(=O)c2cc(Nc3ccccc3)c(Nc3ccccc3)cc21 [DAPH, 4,5-dianilinophthalimide]",essentially unable to reform NM fibers,effective in disaggregation of preformed fibers,partially dissolve NM fibers,partially dissolve NM fibers,can disaggregate amyloid β (Aβ) fibers,antagonizes NM fiber assembly,up to 100%,nearly complete elimination of higher-order structure,almost complete elimination of the usual fibrils,did not significantly alter survival,not observed,reversed the aggregation of the Aβ fibrils,takes only very few minutes,–
"COc1ccc(Nc2cc3c(cc2Nc2ccc(OC)cc2)C(=O)NC3=O)cc1 [DAPH-12, 5,6-Bis-(4-methoxy-phenylamino)-isoindole-1,3-dione]",–,–,–,–,–,–,–,–,–,reduction in prion titers,–,–,takes only very few minutes,at least 60 days
